What all share (assay): cAMP accumulation
Common to all, as to assay type: cell-based
What all share (details): cAMP maximal response, mean ± S.E.M., SEM

One assay concerns the target T1, hCTR F356A (Homo sapiens, UniProt P30988, F356A).
T1 construct: c-Myc (N); expressed in transfected cells
T1 sequence (P30988 25-474 F356A): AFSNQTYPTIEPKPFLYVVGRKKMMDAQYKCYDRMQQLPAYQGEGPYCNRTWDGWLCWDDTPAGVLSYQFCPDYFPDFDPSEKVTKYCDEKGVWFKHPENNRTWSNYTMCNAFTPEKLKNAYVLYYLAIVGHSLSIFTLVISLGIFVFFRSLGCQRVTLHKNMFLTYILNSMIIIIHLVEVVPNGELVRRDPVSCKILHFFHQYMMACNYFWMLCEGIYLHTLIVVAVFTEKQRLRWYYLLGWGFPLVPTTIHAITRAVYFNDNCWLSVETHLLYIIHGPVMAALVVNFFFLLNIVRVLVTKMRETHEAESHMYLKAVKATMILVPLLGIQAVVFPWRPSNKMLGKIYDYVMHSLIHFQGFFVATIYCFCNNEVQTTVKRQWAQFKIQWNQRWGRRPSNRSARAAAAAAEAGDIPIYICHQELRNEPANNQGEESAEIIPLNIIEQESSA
The method, boiled down: (§1)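 Read-out: cAMP accumulated over 30 min of graded ligand exposure in IBMX-containing medium, expressed relative to 100 μM forskolin. Potency (EC50) and maximal effect (Emax) derive from 3-parameter logistic concentration-response curves.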

In a further assay the target is T2, hCTR N286A (Homo sapiens, UniProt P30988, N286A).
T2 construct: c-Myc (N); expressed in transfected cells
T2 sequence (P30988 25-474 N286A): T1 sequence (P30988 25-474 F356A) with N262A, A332F
The method, boiled down:
as §1

The target of another assay is T3, hCTR V358A (Homo sapiens, UniProt P30988, V358A).
T3 construct: c-Myc (N); expressed in transfected cells
T3 sequence (P30988 25-474 V358A): T1 sequence (P30988 25-474 F356A) with A332F, V334A
The method, boiled down: as §1

The target in a further assay is T4, hCTR WT (Homo sapiens, UniProt P30988).
T4 construct: expressed in transfected cells
T4 sequence (P30988 25-474): T1 sequence (P30988 25-474 F356A) with A332F
The method, boiled down: as §1

Another assay deals with T5, hCTR M376A (Homo sapiens, UniProt P30988, M376A).
T5 construct: c-Myc (N); expressed in transfected cells
T5 sequence (P30988 25-474 M376A): T1 sequence (P30988 25-474 F356A) with A332F, M352A
A digest of the protocol:
as §1

Each structure is given as a SMILES string. Residue numbers refer to the chain shown, from its start.

The Emax is the maximal effect, on the per cent scale that the assay sets.

For the compound `CC[C@H](C)[C@H](NC(=O)[C@H](C)NC(=O)[C@@H](NC(=O)[C@H](CCC(N)=O)NC(=O)[C@@H]1CCCN1C(=O)[C@H](Cc1ccccc1)NC(=O)[C@@H](NC(=O)[C@H](Cc1c[nH]cn1)NC(=O)[C@H](Cc1ccccc1)NC(=O)[C@H](CCCCN)NC(=O)[C@H](CC(N)=O)NC(=O)[C@H](Cc1ccccc1)NC(=O)[C@H](CC(=O)O)NC(=O)[C@H](CCC(N)=O)NC(=O)[C@@H](NC(=O)[C@H](Cc1ccc(O)cc1)NC(=O)[C@@H](NC(=O)CNC(=O)[C@H](CC(C)C)NC(=O)[C@H](CCSC)NC(=O)[C@@H]1CSSC[C@H](N)C(=O)NCC(=O)N[C@@H](CC(N)=O)C(=O)N[C@@H](CC(C)C)C(=O)N[C@@H](CO)C(=O)N[C@@H]([C@@H](C)O)C(=O)N1)[C@@H](C)O)[C@@H](C)O)[C@@H](C)O)[C@@H](C)O)C(=O)NCC(=O)N[C@H](C(=O)NCC(=O)N[C@@H](C)C(=O)N1CCC[C@H]1C(N)=O)C(C)C` [hCT], the Emax amounted to 131 ± 8% at hCTR F356A; 126 ± 6% on hCTR N286A; 98 ± 4% at hCTR V358A; 100 ± 2% at hCTR WT; 84.3 ± 10% at hCTR M376A.
